Experimental data: US20250051327A1, “MALT-1 MODULATORS” (EXSCIENTIA AI LIMITED, priority 2020, published 2025)

biological target: Recombinant human MALT-1 (amino acids 340-824) (Homo sapiens (Human), UniProt Q9UDY8); assay: MALT-1 inhibition assay (fluorogenic substrate Ac-LRSR-Rh110-DP); format: biochemical; details: recombinant human MALT-1, substrate Ac-LRSR-Rh110-DP
Description: MALT-1 paracaspase activity was measured using the fluorogenic substrate Ac-LRSR-Rh110-DP (purchased from Biosantan GmbH). […] The reaction was initiated by addition of substrate. Final concentrations of MALT-1 and substrate were 3 nM and 10 μM respectively. Reactions were incubated in the dark for 60 minutes at 25° C. […] Percent inhibition values were calculated from relative fluorescence units at different doses and fitted to a 4-parameter logistic curve to determine IC50 values (see Table 1).

Chain of Recombinant human MALT-1 (amino acids 340-824) (Q9UDY8 340-824): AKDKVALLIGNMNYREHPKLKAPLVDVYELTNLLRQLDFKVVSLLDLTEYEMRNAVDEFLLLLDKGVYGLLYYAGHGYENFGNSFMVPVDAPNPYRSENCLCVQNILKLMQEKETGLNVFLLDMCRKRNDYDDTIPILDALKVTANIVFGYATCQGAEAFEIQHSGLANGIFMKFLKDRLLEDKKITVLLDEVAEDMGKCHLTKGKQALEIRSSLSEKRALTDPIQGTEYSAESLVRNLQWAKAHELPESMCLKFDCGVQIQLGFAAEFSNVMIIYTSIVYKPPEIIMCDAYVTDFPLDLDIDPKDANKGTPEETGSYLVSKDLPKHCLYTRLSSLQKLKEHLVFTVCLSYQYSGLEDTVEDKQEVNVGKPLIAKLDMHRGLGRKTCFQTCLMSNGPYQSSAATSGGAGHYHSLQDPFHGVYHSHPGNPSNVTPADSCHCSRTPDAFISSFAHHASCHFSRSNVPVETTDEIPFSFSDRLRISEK

Molecule | IC50 [nM]
N-[(1S)-1-[4-[[2-chloro-8-[(1S)-1-methoxyethyl]imidazo[1,2-b]pyridazin-7-yl]amino]phenyl]-2,2,2-trifluoro-ethyl]-N-methyl-1,1-dioxo-thiane-4-carboxamide [CPD0084508] | 182
CN(C(=O)[C@H](O)C1CCS(=O)(=O)CC1)[C@@H](c1ccc(N2CCCc3c2cnc2cc(Cl)nn32)cc1)C(F)(F)F (relative stereo) [CPD0073972, (2rel-R)—N-[(1S)-1-(4-{4-chloro-2,3,7,10-tetraazatricyclo[7.4.0.0^2,6]trideca-1(9),3,5,7-tetraen-10-yl}phenyl)-2,2,2-trifluoroethyl]-2-(1,1-dioxo-1λ^e-thian-4-yl)-2-hydroxy-N-methylacetamide] | 109
COc1ccc2ncc(Nc3ccc([C@@H](N(C)C(=O)[C@H]4CC[S@@](=N)(=O)CC4)C(F)(F)F)cc3)c([C@@H](C)OC)c2n1 (stereo in doubt) [CPD0077188, (1 rel-r,4rel-r)-1-imino-N-methyl-1-oxo-N-[(1R)-2,2,2-trifluoro-1-[4-({6-methoxy-4-[(1 rel-R)-1-methoxyethyl]-1,5-naphthyridin-3-yl}amino)phenyl]ethyl]-1λ^6-thiane-4-carboxamide] | 255
CN(C(=O)[C@H]1CNC(=O)C1)[C@H](c1ccc(N2CCCc3c2cnc2cc(Cl)nn32)cc1)C(F)(F)F (stereo in doubt) [CPD0077244, (3 rel-R)—N-[(1R)-1-[4-(4-chloro-2,3,7,10-tetrazatricyclo[7.4.0.0^2,6]trideca-1(9),3,5,7-tetraen-10-yl)phenyl]-2,2,2-trifluoro-ethyl]-N-methyl-5-oxo-pyrrolidine-3-carboxamide] | 581
COc1ccc2ncc(Nc3ccc([C@@H](N(C)C(=O)[C@H]4CC[S@](=N)(=O)CC4)C(F)(F)F)cc3)c([C@@H](C)OC)c2n1 (stereo in doubt) [CPD0077189, (1 rel-s,4rel-s)-1-imino-N-methyl-1-oxo-N-[(1R)-2,2,2-trifluoro-1-[4-({6-methoxy-4-[(1 rel-R)-1-methoxyethyl]-1,5-naphthyridin-3-yl}amino)phenyl]ethyl]-1λ^6-thiane-4-carboxamide] | 274
CO[C@@H](C)c1c(Nc2ccc([C@H](N(C)C(=O)C3CC4(C3)CS(=O)(=O)C4)C(F)(F)F)cc2)cnn2cc(Cl)nc12 [CPD0084934] | 54

The next molecules have a lower IC50 than those just listed; values first:

IC50 [nM] | Molecule
30 | C[C@H]1CCN(c2ccc([C@H](N(C)C(=O)[C@@H]3CNC(=O)C3)C(F)(F)F)cc2)c2cnc3cc(Cl)nn3c21 [CPD0074569]
38 | COc1ccc2ncc(Nc3ccc([C@H](N(C)C(=O)C4CCS(=O)(=O)CC4)C(F)(F)F)cc3)c([C@@H](C)O)c2n1 (relative stereo) [CPD0084256, N-methyl-1,1-dioxo-N-[(1S)-2,2,2-trifluoro-1-[4-[[4-[(1rel R)-1-hydroxyethyl]-6-methoxy-1,5-naphthyridin-3-yl]amino]phenyl]ethyl]thiane-4-carboxamide]
42 | CN1C[C@H](C(=O)N(C)[C@@H](c2ccc(N3CCCc4c3cnc3cc(Cl)nn43)cc2)C(F)(F)F)NC1=O (relative stereo) [CPD0075577]
43 | CO[C@@H](C)c1c(Nc2ccc([C@H](N(C)C(=O)C3CCN(C(=O)CO)CC3)C(F)(F)F)cc2)cnn2cc(Cl)nc12 [CPD0084141, N-[(1S)-1-[4-[[2-chloro-8-[(1S)-1-methoxyethyl]imidazo[1,2-b]pyridazin-7-yl]amino]phenyl]-2,2,2-trifluoro-ethyl]-1-(2-hydroxyacetyl)-N-methyl-piperidine-4-carboxamide]
52 | CO[C@@H](C)c1c(Nc2ccc([C@H](N(C)C(=O)[C@H]3CC[S@](=N)(=O)CC3)C(F)(F)F)cc2)cnn2cc(Cl)nc12 (relative stereo) [CPD0082473, (1rel-r, 4rel-r) N-[(1S)-1-[4-[[2-chloro-8-[(1 S)-1-methoxyethyl]imidazo[1,2-b]pyridazin-7-yl]amino]phenyl]-2,2,2-trifluoro-ethyl]-1-imino-N-methyl-1-oxo-thiane-4-carboxamide]
